These results are taken from patent US9546164B2 (GENENTECH, INC., priority 2013, dated 2017).

Where a name gives a salt, the structure may show the parent alone.

hNav1.7, sequence (Q15858 other isoform, or with tags, fused parts or gaps): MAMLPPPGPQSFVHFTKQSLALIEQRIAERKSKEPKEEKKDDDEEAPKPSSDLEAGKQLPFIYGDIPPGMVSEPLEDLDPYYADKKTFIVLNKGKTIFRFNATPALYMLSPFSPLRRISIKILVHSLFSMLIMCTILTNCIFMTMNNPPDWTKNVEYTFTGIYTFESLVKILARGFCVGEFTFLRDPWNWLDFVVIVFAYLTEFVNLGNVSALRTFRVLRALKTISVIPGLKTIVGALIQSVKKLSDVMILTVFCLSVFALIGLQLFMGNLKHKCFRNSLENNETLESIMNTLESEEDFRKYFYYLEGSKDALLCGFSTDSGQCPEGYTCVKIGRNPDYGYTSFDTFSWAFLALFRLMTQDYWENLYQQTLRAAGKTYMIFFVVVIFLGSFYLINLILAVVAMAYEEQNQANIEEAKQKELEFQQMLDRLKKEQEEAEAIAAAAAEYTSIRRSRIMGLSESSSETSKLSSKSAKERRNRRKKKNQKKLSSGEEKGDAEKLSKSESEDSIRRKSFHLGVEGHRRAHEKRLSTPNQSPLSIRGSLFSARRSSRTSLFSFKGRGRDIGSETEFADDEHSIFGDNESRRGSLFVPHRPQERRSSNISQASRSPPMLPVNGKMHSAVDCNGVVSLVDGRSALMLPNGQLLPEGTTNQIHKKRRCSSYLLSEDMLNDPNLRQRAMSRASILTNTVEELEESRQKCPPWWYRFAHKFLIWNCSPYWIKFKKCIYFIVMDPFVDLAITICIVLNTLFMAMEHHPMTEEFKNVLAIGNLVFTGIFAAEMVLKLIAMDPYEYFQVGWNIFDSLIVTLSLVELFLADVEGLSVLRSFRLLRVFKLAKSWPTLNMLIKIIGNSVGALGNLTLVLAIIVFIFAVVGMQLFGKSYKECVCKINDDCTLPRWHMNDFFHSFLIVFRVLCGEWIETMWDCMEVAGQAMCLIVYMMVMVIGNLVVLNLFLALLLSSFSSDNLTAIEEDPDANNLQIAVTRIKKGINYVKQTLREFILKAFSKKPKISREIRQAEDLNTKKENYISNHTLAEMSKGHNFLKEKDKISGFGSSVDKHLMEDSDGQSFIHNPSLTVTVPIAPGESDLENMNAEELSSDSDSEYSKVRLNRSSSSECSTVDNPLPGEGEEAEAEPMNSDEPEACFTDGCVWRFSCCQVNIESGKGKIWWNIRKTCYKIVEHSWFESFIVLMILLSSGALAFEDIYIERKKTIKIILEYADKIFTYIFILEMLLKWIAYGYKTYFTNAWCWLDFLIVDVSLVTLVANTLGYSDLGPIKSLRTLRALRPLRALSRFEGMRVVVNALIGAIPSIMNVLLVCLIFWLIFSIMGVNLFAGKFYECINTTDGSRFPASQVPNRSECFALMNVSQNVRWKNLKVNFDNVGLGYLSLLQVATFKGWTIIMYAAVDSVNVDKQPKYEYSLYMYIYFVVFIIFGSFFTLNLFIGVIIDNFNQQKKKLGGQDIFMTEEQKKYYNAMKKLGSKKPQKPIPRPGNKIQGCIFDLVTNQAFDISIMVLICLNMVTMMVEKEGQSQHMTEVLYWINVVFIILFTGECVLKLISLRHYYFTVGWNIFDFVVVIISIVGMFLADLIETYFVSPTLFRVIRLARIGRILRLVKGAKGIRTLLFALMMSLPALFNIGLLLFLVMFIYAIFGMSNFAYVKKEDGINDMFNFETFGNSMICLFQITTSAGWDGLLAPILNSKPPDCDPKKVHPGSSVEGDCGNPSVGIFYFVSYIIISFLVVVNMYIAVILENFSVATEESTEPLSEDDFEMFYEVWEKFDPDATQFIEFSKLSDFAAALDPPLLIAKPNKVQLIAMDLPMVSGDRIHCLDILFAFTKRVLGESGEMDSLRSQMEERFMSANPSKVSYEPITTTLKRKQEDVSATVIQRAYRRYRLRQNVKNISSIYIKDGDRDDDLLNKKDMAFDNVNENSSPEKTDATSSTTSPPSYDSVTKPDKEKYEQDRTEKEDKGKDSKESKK
hNav1.7, sequence (Q07699 19-218 partner): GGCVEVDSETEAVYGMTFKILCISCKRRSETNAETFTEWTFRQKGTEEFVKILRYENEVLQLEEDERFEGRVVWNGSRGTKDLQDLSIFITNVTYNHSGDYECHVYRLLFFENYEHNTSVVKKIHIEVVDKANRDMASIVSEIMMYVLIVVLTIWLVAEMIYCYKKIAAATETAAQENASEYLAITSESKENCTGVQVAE

One experiment addresses hNav1.7 (Homo sapiens (Human), UniProt Q15858). In words: Tritiated sulfonamide competitive binding to membranes from cells expressing hNav1.7 and the β1 subunit.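 Note: Filter-bound radioactivity counted by liquid scintillation, nonspecific binding defined with excess unlabelled ligand, IC50 fitted to percent inhibition of specific binding.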
Details: not given
As to `C[C@@H]1CN(Cc2cc(F)c(C(=O)NS(=O)(=O)C3CC3)cc2C2CC2)CCN1[C@@H](C)c1cc(Cl)cc(Cl)c1` [Example 572, 5-cyclopropyl-N-(cyclopropylsulfonyl)-4-(((R)-4-((S)-1-(3,5-dichlorophenyl)ethyl)-3-methylpiperazin-1-yl)methyl)-2-fluorobenzamide], the IC50 was 21.6 nM.
On the same count and under the same terms, the figure for `O=C(NS(=O)(=O)N1CCC1)c1cc(C2CC2)c(O[C@@H]2CCCN(c3ccc(F)cc3)C2)cc1F` [Example 37, (R)—N-(azetidin-1-ylsulfonyl)-5-cyclopropyl-2-fluoro-4-((1-(4-fluorophenyl)piperidin-3-yl)oxy)benzamide, trifluoroacetic acid salt] is 15.1 nM; for `CS(=O)(=O)NC(=O)c1cc(C2CC2)c(CN2CCC(Oc3ccc(Cl)c(Cl)c3)CC2)cc1F` [Example 509, 5-cyclopropyl-4-((4-(3,4-dichlorophenoxy)piperidin-1-yl)methyl)-2-fluoro-N-(methylsulfonyl)benzamide, trifluoroacetic acid salt)] it is 13.1 nM.

The same experiment, now with this note: read-out: Ligand Binding Assay; 100 pM [3H]compound, membranes with hNav1.7 and β1 subunit, 18 h, room temperature.
`CS(=O)(=O)NC(=O)c1cc(C2CC2)c(OCC2CCN(C(CF)c3cc(Cl)cc(Cl)c3)CC2)cc1F` (stereo not shown) [Example 358, 5-cyclopropyl-4-((1-(1-(3,5-dichlorophenyl)-2-fluoroethyl)piperidin-4-yl)methoxy)-2-fluoro-N-(methylsulfonyl)benzamide, trifluoroacetic acid salt]: the IC50 is 14 nM.
On the same count and under the same terms, the figure for `COc1cccc(CN2CCC(C)(COc3cc(F)c(C(=O)NS(C)(=O)=O)cc3C3CC3)CC2)n1` [Example 576] is 270 nM; for `COC[C@H](c1ccc(Cl)c(Cl)c1)N1CCC(COc2cc(F)c(C(=O)NS(C)(=O)=O)cc2C2CC2)CC1` (single isomer, unassigned) [Example 265] it is 100 nM.
The same measure, in the same setting: to `C[C@H](c1cc(Cl)cc(Cl)c1)N1CCC(COc2cc(F)c(C(=O)NS(=O)(=O)C3CC3)cc2Cl)CC1` [Example 405, (R)-5-chloro-N-(cyclopropylsulfonyl)-4-((1-(1-(3,5-dichlorophenyl)ethyl)piperidin-4-yl)methoxy)-2-fluorobenzamide, trifluoroacetic acid salt] belongs 15 nM; to `O=C(NS(=O)(=O)C1CC1)c1cc(C2CC2)c(OCC2CCN(C(=O)c3ccc(Cl)cc3Cl)CC2)cc1F` [Example 258, 5-Cyclopropyl-N-(cyclopropylsulfonyl)-4-((1-(2,4-dichlorobenzoyl)piperidin-4-yl)methoxy)-2-fluorobenzamide], 65 nM; to `CS(=O)(=O)NC(=O)c1cc(C2CC2)c(OC[C@H]2CCN(Cc3cc(Cl)cc(Cl)c3)C(=O)C2)cc1F` (single isomer, unassigned) [Example 235], 210 nM.
Still for that read-out and setting: the figure for `O=C(NS(=O)(=O)C1CC1)c1cc(C2CC2)c(OCC2CCN(S(=O)(=O)C3COC3)CC2)cc1F` [Example 393, 5-cyclopropyl-N-(cyclopropylsulfonyl)-2-fluoro-4-((1-(oxetan-3-ylsulfonyl)piperidin-4-yl)methoxy)benzamide] is 1380 nM.
Consider `CCS(=O)(=O)NC(=O)c1cc(C2CC2)c(OCC2(C)CN([C@@H](C)c3cc(Cl)cc(Cl)c3)C2)cc1F` (single isomer, unassigned) [Example 289], for which the IC50 came to 3.5 nM.
Still for that read-out and setting: the figure for `CS(=O)(=O)NC(=O)c1cc(C2CC2)c(OCC2CCN(S(=O)(=O)C3CCOCC3)CC2)cc1F` [Example 376, 5-cyclopropyl-2-fluoro-N-(methylsulfonyl)-4-((1-((tetrahydro-2H-pyran-4-yl)sulfonyl)piperidin-4-yl)methoxy)benzamide] is 2450 nM.
On to `CS(=O)(=O)NC(=O)c1cc(C2CC2)c(CN2[C@@H]3CC[C@H]2CC(Oc2cc(C(F)(F)F)cc(Cl)c2F)C3)cc1F` (stereo partly drawn) [Example 471, 4-(((1R,3r,5S)-3-(3-chloro-2-fluoro-5-(trifluoromethyl)phenoxy)-8-azabicyclo[3.2.1]octan-8-yl)methyl)-5-cyclopropyl-2-fluoro-N-(methylsulfonyl)benzamide 2,2,2-trifluoroacetate], for which the IC50 was 3.7 nM.
Same read-out and setting: the figure for `CS(=O)(=O)NC(=O)c1cc(C2CC2)c(OCC2CN(Cc3cccc(F)c3)C2)cc1F` [Example 73, 5-cyclopropyl-2-fluoro-4-((1-(3-fluorobenzyl)azetidin-3-yl)methoxy)-N-(methylsulfonyl)benzamide] is 1300 nM.
For the compound `CS(=O)(=O)NC(=O)c1cc(C2CC2)c(OCC2(C#N)CCN(Cc3cc(C(F)(F)F)cc(Cl)c3F)CC2)cc1F` [Example 595, 4-((1-(3-chloro-2-fluoro-5-(trifluoromethyl)benzyl)-4-cyanopiperidin-4-yl)methoxy)-5-cyclopropyl-2-fluoro-N-(methylsulfonyl)benzamide], the IC50 was 34.3 nM.
On the same count and under the same terms, the figure for `CS(=O)(=O)NC(=O)c1cc(C2CC2)c(OCC2CCN(C(=O)c3cccc(Cl)c3)CC2)cc1F` [Example 195, 4-((1-(3-Chlorobenzoyl)piperidin-4-yl)methoxy)-5-cyclopropyl-2-fluoro-N-(methylsulfonyl)benzamide] is 350 nM.
As for `O=C(NS(=O)(=O)C1CC1)c1cc(C2CC2)c(OCC2CCN(C(c3cccc(Cl)c3)c3cccc(Cl)c3)CC2)cc1F` [Example 401, 4-((1-(bis(3-chlorophenyl)methyl)piperidin-4-yl)methoxy)-5-cyclopropyl-N-(cyclopropylsulfonyl)-2-fluorobenzamide, trifluoroacetic acid salt], the IC50 is 3.1 nM.
The same measure, in the same setting: to `CC1(COc2cc(F)c(C(=O)NS(=O)(=O)C3CC3)cc2C2CC2)CN(c2ccncc2C(F)(F)F)C1` [Example 489, 5-cyclopropyl-N-(cyclopropylsulfonyl)-2-fluoro-4-((3-methyl-1-(3-(trifluoromethyl)pyridin-4-yl)azetidin-3-yl)methoxy)benzamide, trifluoroacetic acid salt] belongs 103 nM.
As to `CS(=O)(=O)NC(=O)c1cc(C2CC2)c(OCC2CCN(c3cc(Cl)cc(Cl)c3)CC2)cc1F` [Example 292, 5-Cyclopropyl-4-((1-(3,5-dichlorophenyl)piperidin-4-yl)methoxy)-2-fluoro-N-(methylsulfonyl)benzamide], the IC50 was 2.9 nM.
Consider `CS(=O)(=O)NC(=O)c1cc(C2CC2)c(OCCC2CCN(Cc3cc(Cl)cc(Cl)c3)CC2)cc1F` [Example 302, 5-cyclopropyl-4-(2-(1-(3,5-dichlorobenzyl)piperidin-4-yl)ethoxy)-2-fluoro-N-(methylsulfonyl)benzamide, trifluoroacetic acid salt], for which the IC50 came to 5.7 nM.
As for `C[C@H]1[C@H](Oc2cc(F)c(C(=O)NS(C)(=O)=O)cc2C2CC2)CCCN1Cc1cc(Cl)cc(Cl)c1` [Example 331, 5-cyclopropyl-4-(((2S,3R)-1-(3,5-dichlorobenzyl)-2-methylpiperidin-3-yl)oxy)-2-fluoro-N-(methylsulfonyl)benzamide, trifluoroacetic acid salt], the IC50 was 32.2 nM.
As for `O=C(NS(=O)(=O)C1CC1)c1cc(C2CC2)c(OCC2CCN(C(c3ccc(Cl)cc3)c3ccc(Cl)cc3)CC2)cc1F` [Example 400, 4-((1-(bis(4-chlorophenyl)methyl)piperidin-4-yl)methoxy)-5-cyclopropyl-N-(cyclopropylsulfonyl)-2-fluorobenzamide, trifluoroacetic acid salt], the IC50 was 2.1 nM.
